Assay results: patent US7554012B2, “Plants and plant cells exhibiting resistance to AMPA, and methods for making the same” (priority 1998, dated 2009)
Where “and” joins values, the source holds several entries; their conditions need not be identical. Equal entries are not always repeated. Where two headings read alike, the source gives them in different places.

Tests used:
Wheat immature embryos = test: Wheat embryo germination assay; assay type: in vivo; settings: for Germinating root length / Germinating shoot length: ten days
Protocol: Wheat immature embryos were exposed to different concentrations of AMPA and N-acetyl-AMPA in a wheat embryo germination assay. MMSO base media was prepared containing 40 grams per liter maltose, 2 grams per liter GELRITE™, MS salts, and vitamins. Salts, vitamins, and maltose were dissolved in 3500 ml water and the pH was adjusted to 5.8. 500 ml was dispensed into a separate bottle along with 1 gram of GELRITE™ and autoclaved for 17 minutes. After the medium had cooled to about 45° C., AMPA or N-acetyl-AMPA was added to a defined concentration. The mixture was poured into six square Sundae cups under sterile conditions and allowed to solidify.
Immature wheat embryos were isolated from twenty day old seedlings (after anther formation) and inoculated into each MMSO media. Each Sundae cup contained nine immature embryo's. Three separate plates were used for each concentration of AMPA (0, 0.1, 0.15, 0.2, 0.25, 0.3, and 1.0 mM) or N-acetyl-AMPA (0, 0.1, 0.3, 1.0, and 3.0 mM). Sundae cups were incubated for ten days and the length of roots and shoots were determined and compared.

PhnO enzyme = PhnO enzyme (Escherichia coli, UniProt P16691, P2A)
PhnO enzyme, sequence (P16691 whole entry P2A): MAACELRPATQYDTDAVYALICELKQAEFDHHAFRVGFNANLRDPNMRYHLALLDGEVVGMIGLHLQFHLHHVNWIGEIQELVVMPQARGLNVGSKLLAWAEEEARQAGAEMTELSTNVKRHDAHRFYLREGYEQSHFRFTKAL
Protocol: The apparent Km (Km) and Vmax (Vmax) of PhnO enzyme were determined for the substrates aminomethlyphosphonate and acetyl-CoA. Determination of the PhnO Km and Vmax were made by endpoint kinetic analyses, determining the enzyme velocity in consuming each substrate at varying substrate concentrations, and plotting the inverse of the enzyme velocity versus the inverse of the substrate concentration to produce a Lineweaver-Burk plot of enzyme kinetics. The conversion of [^14C]-AMPA to N-acetyl-[^14C]-AMPA was monitored as in example 2, using enzyme in a desalted crude lysate of E. coli expressing phnO from pMON15032, produced as in example 4. […] Enzyme reactions were incubated at 37° C. for 5 minutes and quenched with 1 volume of 100 mM sodium acetate (NaOAc), pH 4.4, in ethanol. Samples were analyzed by HPLC to determine the amount of [^14C]-AMPA converted to N-acetyl-[^14C]-AMPA.

[1] = [^14C]-glyphosate in growth medium exposed to light
Protocol: Growth medium to which [^14C]-glyphosate was added was treated to the same conditions as wheat plants, ie, the medium was exposed to incident light intensities which plants received.

[2] = system: tobacco lines 33476, 36779, 37235; test: [^14C]-glyphosate metabolism in R1 tobacco plants; assay type: in vivo
Source text: Seed from Ro transformation events were obtained after self crossing in growth chamber conditions. Ro seed were cured and planted to generate R1 progeny. Source leaves of R1 progeny at the five leaf stage were exposed to [^14C]-glyphosate by spotting a 2 microliter sample onto each vein (50 microliters of [^14C]-glyphosate Na+ salt, 517,000 dpm/microgram, 0.42 microgram/microliter mixed with 10 microliters of glycerol). Each leaf received several spots depending on the number of veins on that leaf. Three days later 15 additional 2 microliter spots were applied to each leaf. Two weeks later, five 2 microliter spots were applied to each of two leaves on each plant. These were new leaves and were not the older leaves to which glyphosate was initially applied. Five days after this last application, about 300 milligrams of tissue was sampled from two sink leaves on each plant. The samples from each plant were homogenized in separate 1 ml volumes of deionized water, centrifuged at 9,000 RPM in a microcentrifuge, and the aqueous volumes were collected and stored on ice. Extracts were analyzed by HPLC for the presence of [^14C] labeled metabolites as in Example 2. […] In addition, the lack of a bleaching effect in line 36779 after exposure to glyphosate is consistent with the presence of functional GOX and PhnO enzymes and the absence of detectable [^14C]-AMPA.

[3] = system: recombinant cotton line 4416; test: [^14C]-glyphosate metabolism in cotton line 4416; assay type: in vivo, cotton (Gossypium hirsutum L.); settings: line 4416 plants; listed as [^14C]-Glyphosate
Protocol: Coker 312 glyphosate resistant recombinant cotton line 4416 was selected as a glyphosate resistant cotton line after transformation with pMON10149, a triple gene Agrobacterium tumefaciens mediated double border plant transformation vector containing chloroplast targeted EPSPS, GOX, and PhnO, each expressed independently from separate 35S promoters. Several 4416 R3 plants were raised from R2 seed. One leaf of each plantlet at the three or four stage was treated with a mixture of ROUNDUP ULTRA™ commercial herbicide mixture (Lot No. GLP-9701-7428-F) which had been fortified with [^14C]-glyphosate (Code No. C-2251). […] The treatment solution consisted of approximately 38 μL containing 1.60×10^6 dpm with a [^14C]-glyphosate specific activity of 1.713×10^3 dpm/μg glyphosate acid. Three or seven days after topical application the treated leaves were rinsed with water, frozen in liquid nitrogen, fractured with a spatula and then ground using a TEKMAR™ tissuemizer in 10 mL of water. The leaf extracts were adjusted to pH 3.5-4.0 with 1N HCl and approximately 4-8000 dpm were analyzed for the presence of [^14C]-metabolites by HPLC with liquid scintillation vial collection and detection (HPLC/LSC) as described in example 2. The new growth including the meristem and new leaves that emerged following topical application were also extracted and analyzed for [^14C]-metabolites.

male gametes = settings: under optimal conditions; cited from earlier work
female gametes = settings: under optimal conditions; cited from earlier work
[4] = system: R2 glyphosate tolerant wheat plants; test: [^14C]-glyphosate metabolism in wheat plants; assay type: in vivo, Triticum aestivum cv Bobwhite
Protocol: R2 seed was germinated from a number of different glyphosate tolerant lines to produce R2 glyphosate tolerant plants to which [^14C]-glyphosate was applied as described above. Plant leaf and stem tissues were harvested at 48 hours after glyphosate application, and water soluble compounds were extracted as described above and analyzed by HPLC as in example 2 for the presence of [^14C]-glyphosate metabolites. The total area under the [^14C] isotope labeled peaks eluting from the column was summed to provide a baseline of 100% [^14C]-compound identification for each sample analyzed.

[5] = AMPA substrate 200 nm (nanomoles)
[6] = EPSPS + PhnO + GOX, Plant Line 25462
[7] = EPSPS + PhnO + GOX, Plant Line 26281
[8] = EPSPS + PhnO + GOX, Plant Line 28598
[9] = non-recombinant Bobwhite plants

Molecule: NCP(=O)(O)O [AMPA, N-aminomethyl phosphonic acid]
- Germinating root length (Wheat immature embryos; 0.10 mM): 8.0 ± 2.0 cm
- Germinating shoot length (Wheat immature embryos; 0.10 mM): 11.7 ± 2.5 cm
- Germinating root length (Wheat immature embryos; 0.15 mM): 6.3 ± 1.7 cm
- Germinating shoot length (Wheat immature embryos; 0.15 mM): 11.3 ± 2.1 cm
- Germinating root length (Wheat immature embryos; 0.20 mM): 4.6 ± 2.1 cm
- Germinating shoot length (Wheat immature embryos; 0.20 mM): 9.2 ± 1.8 cm
- Germinating root length (Wheat immature embryos; 0.25 mM): 3.1 ± 1.6 cm
- Germinating shoot length (Wheat immature embryos; 0.25 mM): 8.5 ± 1.8 cm
- Germinating root length (Wheat immature embryos; 0.30 mM): 2.6 ± 1.6 cm
- Germinating shoot length (Wheat immature embryos; 0.30 mM): 6.6 ± 1.8 cm
- germination of immature embryos (Wheat immature embryos; 1.00 mM): eliminated the germination
- Germinating root length (Wheat immature embryos; 1.00 mM): 0.4 ± 0.1 cm
- Germinating shoot length (Wheat immature embryos; 1.00 mM): 0.9 ± 0.1 cm
- concentrations not substantially inhibitory to growth and elongation of immature embryos (Wheat immature embryos; in vivo): under 0.2 mM
- concentrations severely inhibitory to both shoot and root elongation (Wheat immature embryos; in vivo): above 0.2 mM
- % Turnover (PhnO enzyme; [5]): 39.5%
- Velocity (PhnO enzyme; [5]): 79 nm per minute per mg of protei
- % Turnover (PhnO enzyme; AMPA substrate 400 nm): 35.1%
- Velocity (PhnO enzyme; AMPA substrate 400 nm): 140 nm per minute per mg of protei
- % Turnover (PhnO enzyme; AMPA substrate 800 nm): 32.9%
- Velocity (PhnO enzyme; AMPA substrate 800 nm): 263 nm per minute per mg of protei
- % Turnover (PhnO enzyme; AMPA substrate 1200 nm): 26.8%
- Velocity (PhnO enzyme; AMPA substrate 1200 nm): 322 nm per minute per mg of protei
- % Turnover (PhnO enzyme; AMPA substrate 1600 nm): 26.2%
- Velocity (PhnO enzyme; AMPA substrate 1600 nm): 426 nm per minute per mg of protei
- % Turnover (PhnO enzyme; AMPA substrate 2000 nm): 22.1%
- Velocity (PhnO enzyme; AMPA substrate 2000 nm): 442 nm per minute per mg of protei
- % Turnover (PhnO enzyme; AMPA substrate 2400 nm): 19.2%
- Velocity (PhnO enzyme; AMPA substrate 2400 nm): 461 nm per minute per mg of protei
- % Turnover (PhnO enzyme; AMPA substrate 2800 nm): 17.6%
- Velocity (PhnO enzyme; AMPA substrate 2800 nm): 493 nm per minute per mg of protei
- % Turnover (PhnO enzyme; AMPA substrate 3200 nm): 17.3%
- Velocity (PhnO enzyme; AMPA substrate 3200 nm): 554 nm per minute per mg of protei
- % Turnover (PhnO enzyme; AMPA substrate 3600 nm): 14.5%
- Velocity (PhnO enzyme; AMPA substrate 3600 nm): 522 nm per minute per mg of protei
- % Turnover (PhnO enzyme; AMPA substrate 4000 nm): 13.6%
- Velocity (PhnO enzyme; AMPA substrate 4000 nm): 544 nm per minute per mg of protei
- % Turnover (PhnO enzyme; AMPA substrate 6000 nm): 12.7%
- Velocity (PhnO enzyme; AMPA substrate 6000 nm): 762 nm per minute per mg of protei
- % Turnover (PhnO enzyme; AMPA substrate 7600 nm): 10%
- Velocity (PhnO enzyme; AMPA substrate 7600 nm): 760 nm per minute per mg of protei
- apparent Vmax (PhnO enzyme; AMPA substrate, Lineweaver-Burk plot): about 824 U/mg protein
- Km (PhnO enzyme; read-out: apparent Km of PhnO for AMPA as a substrate, Lineweaver-Burk plot of Table 8 data): ~9 mM

Molecule: N-phosphono-methyl-glycine [Glyphosate]
- Acetyl-[^14C]-AMPA, of summed [^14C] peaks [1]: 2% and 0% and 0.2%
- [^14C]-Glyphosate, of summed [^14C] peaks ([1]; same light exposure as plants): 48% and 87% and 60%
- [^14C] labeled metabolites in sink leaf extract ([2]; line 33476 (GOX)): only [^14C]-AMPA
- [^14C] labeled metabolites in sink leaf extract ([2]; line 36779): Only N-acetyl-[^14C]-AMPA
- [^14C] labeled metabolites in sink leaf extract ([2]; line 37235): non-metabolized [^14C]-glyphosate as well as a trace but measurable amount of [^14C]-AMPA
- % [^14C] metabolite in Glyphosate Treated Leaf Extract: AMPA [3]: 2.1% and 2.0% and 1.6% and 2.2% and 2.5%
- % [^14C] metabolite in Glyphosate Treated Leaf Extract: N-Acetyl-AMPA [3]: 27-74%
- % [^14C] metabolite in New Growth Extract: AMPA [3]: 0.2% and 0.5% and 2.5%
- % [^14C] metabolite in New Growth Extract: Glyphosate [3]: greater than 90%
- % [^14C] metabolite in New Growth Extract: N-Acetyl AMPA [3]: greater than 90%
- male gametes killed (male gametes): about 95%
- female gametes left capable of fertilization (female gametes): 40-60%
- Acetyl-[^14C]-AMPA, of summed [^14C] peaks [4, 6]: 0%
- [^14C]-Glyphosate, of summed [^14C] peaks [4, 6]: 48% and 44% and 54%
- Acetyl-[^14C]-AMPA, of summed [^14C] peaks [4, 7]: 17% and 13% and 7%
- [^14C]-AMPA, of summed [^14C] peaks [4, 7]: 14% and 11% and 7%
- [^14C]-Glyphosate, of summed [^14C] peaks [4, 7]: 48% and 64% and 38%
- [^14C]-Glyphosate, of summed [^14C] peaks ([4]; EPSPS + PhnO + GOX, Plant Line 27249): 6% and 14% and 5%
- Acetyl-[^14C]-AMPA, of summed [^14C] peaks [4, 8]: 5%
- [^14C]-AMPA, of summed [^14C] peaks [4, 8]: 7%
- [^14C]-Glyphosate, of summed [^14C] peaks [4, 8]: 20% and 25%
- [^14C]-Other, of summed [^14C] peaks [4, 8]: 68% and 63%
- Acetyl-[^14C]-AMPA, of summed [^14C] peaks ([4]; EPSPS, Plant Line 24756): 1% and 0%
- [^14C]-AMPA, of summed [^14C] peaks ([4]; EPSPS, Plant Line 24756): 25% and 46%
- [^14C]-Glyphosate, of summed [^14C] peaks ([4]; EPSPS, Plant Line 24756, 48 hours after application): 43% and 53%
- Acetyl-[^14C]-AMPA, of summed [^14C] peaks ([4]; EPSPS, Plant Line 25397): 0% and 1.2%
- [^14C]-AMPA, of summed [^14C] peaks ([4]; EPSPS, Plant Line 25397): 38% and 19% and 20%
- [^14C]-Glyphosate, of summed [^14C] peaks ([4]; EPSPS, Plant Line 25397): 61% and 37% and 64%
- Acetyl-[^14C]-AMPA, of summed [^14C] peaks [4, 9]: 0%
- [^14C]-AMPA, of summed [^14C] peaks [4, 9]: 26% and 15% and 24%
